Paper PMC5988656, “Phase I studies of AZD1208, a proviral integration Moloney virus kinase inhibitor in solid and haematological cancers” (British Journal of Cancer, 2018)

Test system: patients with recurrent or refractory AML
Experiment: AML dose-escalation study: safety and tolerability (AEs, DLTs)
Type: in vivo, human
Description: Conducted at three centres in the USA and one in Canada. Dose escalation followed a conventional 3 + 3 design. […] In the first cohort, dosing between the first and subsequent patients was staggered with a 7-day interval. Dose-escalation decisions were based on the safety and tolerability data from ≥3 evaluable patients (or six if one of the first three patients experienced a dose-limiting toxicity [DLT]).
AZD1208 could be escalated by up to 100% in subsequent cohorts until one DLT was observed, after which succeeding doses were escalated by up to 50%.
In the case of a DLT, the cohort was expanded to six patients. If a DLT occurred in ≥2 patients within a cohort, the dose was determined to be a non-tolerated dose (NTD) and dose escalation was stopped.
Grade 3 or 4 toxicities not attributable to the disease or disease-related processes under investigation, and occurring before the end of Cycle 1, were considered DLTs.
The NTD was identified as the dose at which ≥2 DLTs occurred in a given cohort.

## N[C@@H]1CCCN(c2c(/C=C3\SC(=O)NC3=O)cccc2-c2ccccc2)C1 [AZD1208]
120 mg, n = 4
  Abdominal pain (all-grade AE): 1 (25.0) n (%)
  Asthenia (all-grade AE): 1 (25.0) n (%)
  Chills (all-grade AE): 0 n (%)
  Cough (all-grade AE): 0 n (%)
  Decreased appetite (all-grade AE): 0 n (%)
  Dehydration (all-grade AE): 0 n (%)
  Diarrhoea (all-grade AE): 1 (25.0) n (%)
  Dyspnoea (all-grade AE): 0 n (%)
  Fatigue (all-grade AE): 1 (25.0) n (%)
  Febrile neutropenia (all-grade AE): 3 (75.0) n (%)
  Headache (all-grade AE): 0 n (%)
  Hyperglycaemia (all-grade AE): 0 n (%)
  Hypocalcaemia (all-grade AE): 1 (25.0) n (%)
  Hypokalaemia (all-grade AE): 0 n (%)
  Hypomagnesaemia (all-grade AE): 1 (25.0) n (%)
  Hypophosphataemia (all-grade AE): 1 (25.0) n (%)
  Hypotension (all-grade AE): 1 (25.0) n (%)
  Maculopapular rash (all-grade AE): 0 n (%)
  Nausea (all-grade AE): 3 (75.0) n (%)
  Oedema peripheral (all-grade AE): 1 (25.0) n (%)
  Patients with any AE (all-grade AE): 3 (75.0) n (%)
  Pneumonia (all-grade AE): 1 (25.0) n (%)
  Pyrexia (all-grade AE): 0 n (%)
  Rash (all-grade AE): 0 n (%)
  Renal failure acute (all-grade AE): 0 n (%)
  Stomatitis (all-grade AE): 1 (25.0) n (%)
  Vision blurred (all-grade AE): 1 (25.0) n (%)
  Vomiting (all-grade AE): 2 (50.0) n (%)
240 mg (bacteremia, peristomal ulcer)
  Patients in whom AZD1208 was discontinued as a result of SAEs and AEs: 1 n
240 mg, n = 6
  Abdominal pain (all-grade AE): 0 n (%)
  Asthenia (all-grade AE): 0 n (%)
  Chills (all-grade AE): 1 (16.7) n (%)
  Cough (all-grade AE): 1 (16.7) n (%)
  DLT detail, action taken: Peristomal ulcer, drug permanently discontinued
  Decreased appetite (all-grade AE): 1 (16.7) n (%)
  Dehydration (all-grade AE): 0 n (%)
  Diarrhoea (all-grade AE): 1 (16.7) n (%)
  Dyspnoea (all-grade AE): 1 (16.7) n (%)
  Fatigue (all-grade AE): 1 (16.7) n (%)
  Febrile neutropenia (all-grade AE): 2 (33.3) n (%)
  Headache (all-grade AE): 0 n (%)
  Hyperglycaemia (all-grade AE): 0 n (%)
  Hypocalcaemia (all-grade AE): 1 (16.7) n (%)
  Hypokalaemia (all-grade AE): 0 n (%)
  Hypomagnesaemia (all-grade AE): 1 (16.7) n (%)
  Hypophosphataemia (all-grade AE): 0 n (%)
  Hypotension (all-grade AE): 2 (33.3) n (%)
  Maculopapular rash (all-grade AE): 1 (16.7) n (%)
  Nausea (all-grade AE): 4 (66.7) n (%)
  Oedema peripheral (all-grade AE): 1 (16.7) n (%)
  Patients with any AE (all-grade AE): 6 (100.0) n (%)
  Pneumonia (all-grade AE): 3 (50.0) n (%)
  Pyrexia (all-grade AE): 0 n (%)
  Rash (all-grade AE): 0 n (%)
  Renal failure acute (all-grade AE): 1 (16.7) n (%)
  Stomatitis (all-grade AE): 1 (16.7) n (%)
  Vision blurred (all-grade AE): 0 n (%)
  Vomiting (all-grade AE): 3 (50.0) n (%)
480 mg (vomiting, gingival pain)
  Patients in whom AZD1208 was discontinued as a result of SAEs and AEs: 2 n
480 mg, n = 6
  Abdominal pain (all-grade AE): 1 (16.7) n (%)
  Asthenia (all-grade AE): 1 (16.7) n (%)
  Chills (all-grade AE): 0 n (%)
  Cough (all-grade AE): 1 (16.7) n (%)
  DLT detail, action taken: Fatigue, drug interrupted
  Decreased appetite (all-grade AE): 0 n (%)
  Dehydration (all-grade AE): 0 n (%)
  Diarrhoea (all-grade AE): 3 (50.0) n (%)
  Dyspnoea (all-grade AE): 2 (33.3) n (%)
  Fatigue (all-grade AE): 4 (66.7) n (%)
  Febrile neutropenia (all-grade AE): 0 n (%)
  Headache (all-grade AE): 3 (50.0) n (%)
  Hyperglycaemia (all-grade AE): 2 (33.3) n (%)
  Hypocalcaemia (all-grade AE): 1 (16.7) n (%)
  Hypokalaemia (all-grade AE): 3 (50.0) n (%)
  Hypomagnesaemia (all-grade AE): 2 (33.3) n (%)
  Hypophosphataemia (all-grade AE): 2 (33.3) n (%)
  Hypotension (all-grade AE): 2 (33.3) n (%)
  Maculopapular rash (all-grade AE): 0 n (%)
  Nausea (all-grade AE): 1 (16.7) n (%)
  Oedema peripheral (all-grade AE): 3 (50.0) n (%)
  Patients with any AE (all-grade AE): 6 (100.0) n (%)
  Pneumonia (all-grade AE): 2 (33.3) n (%)
  Pyrexia (all-grade AE): 1 (16.7) n (%)
  Rash (all-grade AE): 1 (16.7) n (%)
  Renal failure acute (all-grade AE): 2 (33.3) n (%)
  Stomatitis (all-grade AE): 3 (50.0) n (%)
  Vision blurred (all-grade AE): 3 (50.0) n (%)
  Vomiting (all-grade AE): 2 (33.3) n (%)
700 mg (lung infection, GBS, Escherichia spp. sepsis)
  Patients in whom AZD1208 was discontinued as a result of SAEs and AEs: 3 n
700 mg, n = 7
  Abdominal pain (all-grade AE): 3 (42.9) n (%)
  Asthenia (all-grade AE): 1 (14.3) n (%)
  Chills (all-grade AE): 1 (14.3) n (%)
  Cough (all-grade AE): 4 (57.1) n (%)
  DLT detail, action taken: GBS, drug permanently discontinued
  Decreased appetite (all-grade AE): 2 (28.6) n (%)
  Dehydration (all-grade AE): 0 n (%)
  Diarrhoea (all-grade AE): 5 (71.4) n (%)
  Dyspnoea (all-grade AE): 2 (28.6) n (%)
  Fatigue (all-grade AE): 2 (28.6) n (%)
  Febrile neutropenia (all-grade AE): 1 (14.3) n (%)
  Headache (all-grade AE): 1 (14.3) n (%)
  Hyperglycaemia (all-grade AE): 1 (14.3) n (%)
  Hypocalcaemia (all-grade AE): 3 (42.9) n (%)
  Hypokalaemia (all-grade AE): 2 (28.6) n (%)
  Hypomagnesaemia (all-grade AE): 2 (28.6) n (%)
  Hypophosphataemia (all-grade AE): 1 (14.3) n (%)
  Hypotension (all-grade AE): 3 (42.9) n (%)
  Maculopapular rash (all-grade AE): 2 (28.6) n (%)
  Nausea (all-grade AE): 5 (71.4) n (%)
  Oedema peripheral (all-grade AE): 2 (28.6) n (%)
  Patients with any AE (all-grade AE): 7 (100.0) n (%)
  Pneumonia (all-grade AE): 0 n (%)
  Pyrexia (all-grade AE): 0 n (%)
  Rash (all-grade AE): 1 (14.3) n (%)
  Renal failure acute (all-grade AE): 1 (14.3) n (%)
  Stomatitis (all-grade AE): 0 n (%)
  Vision blurred (all-grade AE): 0 n (%)
  Vomiting (all-grade AE): 2 (28.6) n (%)
900 mg (acute coronary syndrome, rash)
  Patients in whom AZD1208 was discontinued as a result of SAEs and AEs: 2 n
900 mg QD
  Tolerability: not tolerated
900 mg, n = 9
  Abdominal pain (all-grade AE): 1 (11.1) n (%)
  Asthenia (all-grade AE): 2 (22.2) n (%)
  Chills (all-grade AE): 2 (22.2) n (%)
  Cough (all-grade AE): 2 (22.2) n (%)
  DLT detail, action taken: Rash, drug permanently discontinued; maculopapular rash, drug permanently discontinued
  Decreased appetite (all-grade AE): 1 (11.1) n (%)
  Dehydration (all-grade AE): 4 (44.4) n (%)
  Diarrhoea (all-grade AE): 4 (44.4) n (%)
  Dyspnoea (all-grade AE): 2 (22.2) n (%)
  Fatigue (all-grade AE): 2 (22.2) n (%)
  Febrile neutropenia (all-grade AE): 3 (33.3) n (%)
  Headache (all-grade AE): 0 n (%)
  Hyperglycaemia (all-grade AE): 2 (22.2) n (%)
  Hypocalcaemia (all-grade AE): 1 (11.1) n (%)
  Hypokalaemia (all-grade AE): 2 (22.2) n (%)
  Hypomagnesaemia (all-grade AE): 1 (11.1) n (%)
  Hypophosphataemia (all-grade AE): 2 (22.2) n (%)
  Hypotension (all-grade AE): 2 (22.2) n (%)
  Maculopapular rash (all-grade AE): 1 (11.1) n (%)
  Nausea (all-grade AE): 2 (22.2) n (%)
  Oedema peripheral (all-grade AE): 2 (22.2) n (%)
  Patients with any AE (all-grade AE): 9 (100.0) n (%)
  Pneumonia (all-grade AE): 0 n (%)
  Pyrexia (all-grade AE): 3 (33.3) n (%)
  Rash (all-grade AE): 2 (22.2) n (%)
  Renal failure acute (all-grade AE): 0 n (%)
  Stomatitis (all-grade AE): 0 n (%)
  Vision blurred (all-grade AE): 0 n (%)
  Vomiting (all-grade AE): 1 (11.1) n (%)
Total N = 32
  Abdominal pain (all-grade AE): 6 (18.8) n (%)
  Asthenia (all-grade AE): 5 (15.6) n (%)
  Chills (all-grade AE): 4 (12.5) n (%)
  Cough (all-grade AE): 8 (25.0) n (%)
  Decreased appetite (all-grade AE): 4 (12.5) n (%)
  Dehydration (all-grade AE): 4 (12.5) n (%)
  Diarrhoea (all-grade AE): 14 (43.8) n (%)
  Dyspnoea (all-grade AE): 7 (21.9) n (%)
  Fatigue (all-grade AE): 10 (31.3) n (%)
  Febrile neutropenia (all-grade AE): 9 (28.1) n (%)
  Headache (all-grade AE): 4 (12.5) n (%)
  Hyperglycaemia (all-grade AE): 5 (15.6) n (%)
  Hypocalcaemia (all-grade AE): 7 (21.9) n (%)
  Hypokalaemia (all-grade AE): 7 (21.9) n (%)
  Hypomagnesaemia (all-grade AE): 7 (21.9) n (%)
  Hypophosphataemia (all-grade AE): 6 (18.8) n (%)
  Hypotension (all-grade AE): 10 (31.3) n (%)
  Maculopapular rash (all-grade AE): 4 (12.5) n (%)
  Nausea (all-grade AE): 15 (46.9) n (%)
  Oedema peripheral (all-grade AE): 9 (28.1) n (%)
  Patients with any AE (all-grade AE): 31 (96.9) n (%)
  Pneumonia (all-grade AE): 6 (18.8) n (%)
  Pyrexia (all-grade AE): 4 (12.5) n (%)
  Rash (all-grade AE): 4 (12.5) n (%)
  Renal failure acute (all-grade AE): 4 (12.5) n (%)
  Stomatitis (all-grade AE): 5 (15.6) n (%)
  Vision blurred (all-grade AE): 4 (12.5) n (%)
  Vomiting (all-grade AE): 10 (31.3) n (%)
All attributed to disease progression
  Deaths during the study: nine
All doses
  ECG abnormalities: No clinically significant ECG abnormalities
  Patients with DLTs: five
All doses, 32 patients
  AEs judged possibly related to AZD1208, patients: 68.8%
  AZD1208 discontinued as a result of SAEs and AEs, patients: 25%
  Diarrhoea possibly related to AZD1208, patients: 21.9%
  Diarrhoea, patients: 43.8%
  Fatigue possibly related to AZD1208, patients: 18.8%
  Gastrointestinal disorders AEs, patients: 87.5%
  Grade ≥3 febrile neutropenia, patients: 28.1%
  Grade ≥3 hypotension, patients: 18.8%
  Grade ≥3 pneumonia, patients: 15.6%
  Nausea possibly related to AZD1208, patients: 37.5%
  Nausea, patients: 46.9%
  Patients who experienced an AE: 96.9%
  Patients with a grade ≥3 AE: 24 n
  SAE abdominal pain, patients: 6.3%
  SAE back pain, patients: 6.3%
  SAE febrile neutropenia, patients: 25.0%
  SAE hypotension, patients: 6.3%
  SAE maculopapular rash, patients: 6.3%
  Serious AEs (SAEs), patients: 71.9%
  Treatment-related SAEs, patients: 15.6%
  Vomiting possibly related to AZD1208, patients: 18.8%
Five patients with DLTs
  Time of DLT occurrence after the start of treatment: 1 to 10 days
Heavily pretreated AML, QD oral
  Doses generally tolerated: up to 700 mg
